In patent US9505762B2, “Purine derivatives as CB2 receptor agonists” (Hoffmann-La Roche Inc., priority 2013, dated 2016):

Tests used:
human CB1 receptors = human CB1 receptors (Homo sapiens (Human), UniProt P21554); assay: functional cAMP assay, CB1; assay type: cell-based; conditions: CHO cells expressing human CB1
human CB2 receptors = human CB2 receptors (Homo sapiens (Human), UniProt P34972); assay: functional cAMP assay, CB2; assay type: cell-based; conditions: CHO cells expressing human CB2
Chain of human CB2 receptors (P34972 whole entry): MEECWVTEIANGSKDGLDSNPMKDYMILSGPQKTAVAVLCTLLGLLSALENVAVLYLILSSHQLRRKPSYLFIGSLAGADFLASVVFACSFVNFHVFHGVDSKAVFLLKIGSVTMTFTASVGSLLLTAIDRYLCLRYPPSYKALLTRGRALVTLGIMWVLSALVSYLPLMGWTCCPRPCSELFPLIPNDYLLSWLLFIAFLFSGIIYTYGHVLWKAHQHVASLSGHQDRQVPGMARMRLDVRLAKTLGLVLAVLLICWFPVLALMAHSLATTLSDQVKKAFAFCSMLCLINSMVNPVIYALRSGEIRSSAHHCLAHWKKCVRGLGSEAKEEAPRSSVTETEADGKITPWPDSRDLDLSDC

Chain of human CB1 receptors (P21554 whole entry): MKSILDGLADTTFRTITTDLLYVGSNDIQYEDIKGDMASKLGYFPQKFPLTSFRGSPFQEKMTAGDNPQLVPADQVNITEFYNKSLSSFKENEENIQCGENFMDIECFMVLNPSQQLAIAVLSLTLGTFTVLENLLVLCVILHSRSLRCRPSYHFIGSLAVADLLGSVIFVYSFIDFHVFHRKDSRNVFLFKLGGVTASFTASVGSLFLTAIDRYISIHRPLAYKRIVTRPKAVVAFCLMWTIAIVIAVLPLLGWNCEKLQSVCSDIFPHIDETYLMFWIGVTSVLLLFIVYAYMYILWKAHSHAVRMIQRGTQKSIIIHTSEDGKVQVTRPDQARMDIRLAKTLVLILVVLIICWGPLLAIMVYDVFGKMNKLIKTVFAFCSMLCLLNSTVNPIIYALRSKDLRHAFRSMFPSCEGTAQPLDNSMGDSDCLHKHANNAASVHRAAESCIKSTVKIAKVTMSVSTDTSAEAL

**Q.** `FC1(F)CCN(c2nc(Cl)nc3c2ncn3Cc2ccccc2)C1` [Example 154, 9-benzyl-2-chloro-6-(3,3-difluoropyrrolidin-1-yl)purine] was tested. Which EC50 (human CB1 receptors) did it give?
**A.** Its EC50 is greater than 10000 nM.

**Q.** What about the EC50 (human CB2 receptors) of the same compound?
**A.** The EC50 was 211 nM.

**Q.** How did the EC50 (human CB1 receptors) turn out when `CC(C)n1nnnc1Cn1cnc2c(N3CC[C@H](O)C3)nc(C(C)(C)C)nc21` [Example 155, (3S)-1-[2-tert-butyl-9-[(1-propan-2-yltetrazol-5-yl)methyl]purin-6-yl]pyrrolidin-3-ol] was run?
**A.** The EC50 was greater than 10000 nM.

**Q.** And the EC50 (human CB2 receptors)?
**A.** The EC50 was 82.3 nM.

**Q.** For `CC(C)(C)c1nc(N2CCC(F)(F)C2)c2ncn(Cc3nnnn3C3CC3)c2n1` [Example 156, 2-tert-butyl-9-[(1-cyclopropyltetrazol-5-yl)methyl]-6-(3,3-difluoropyrrolidin-1-yl)purine], which EC50 (human CB1 receptors) is on record?
**A.** Its EC50 is greater than 10000 nM.

**Q.** What about the EC50 (human CB2 receptors) of the same compound?
**A.** The EC50 was 9.1 nM.

**Q.** Which results are given for `CC(C)(C)c1nc(N2CCC[C@@H]2CO)c2ncn(Cc3ncccc3Cl)c2n1` [Example 157, [(2R)-1-[2-tert-Butyl-9-[(3-chloropyridin-2-yl)methyl]purin-6-yl]pyrrolidin-2-yl]methanol]?
**A.** EC50 (human CB1 receptors): > 10000 nM; EC50 (human CB2 receptors): 4.3 nM

**Q.** Which EC50 (human CB1 receptors) does the source give for `CCCn1nnnc1Cn1cnc2c(N3CC[C@H](O)C3)nc(C(C)(C)C)nc21` [Example 158, (3S)-1-[2-tert-butyl-9-[(1-propyltetrazol-5-yl)methyl]purin-6-yl]pyrrolidin-3-ol] here?
**A.** Its EC50 is greater than 10000 nM.

**Q.** And the EC50 (human CB2 receptors)?
**A.** The EC50 was 61.6 nM.

**Q.** Which EC50 (human CB1 receptors) does the source give for `CC(C)(C)c1nc(N2CC[C@H](O)[C@H]2CO)c2ncn(Cc3ncccc3Cl)c2n1` [Example 159, (2R,3S)-1-[2-tert-butyl-9-[(3-chloropyridin-2-yl)methyl]purin-6-yl]-2-(hydroxymethyl)pyrrolidin-3-ol] here?
**A.** The EC50 was greater than 10000 nM.

**Q.** And the EC50 (human CB2 receptors)?
**A.** Its EC50 is 591 nM.

**Q.** For `CC(C)(C)c1nc(N2CCSC2)c2ncn(Cc3ncccc3Cl)c2n1` [Example 161, 3-[2-tert-butyl-9-[(3-chloropyridin-2-yl)methyl]purin-6-yl]-1,3-thiazolidine], which EC50 (human CB1 receptors) is on record?
**A.** Its EC50 is greater than 10000 nM.

**Q.** What about the EC50 (human CB2 receptors) of the same compound?
**A.** Its EC50 is 12.6 nM.

**Q.** How did the EC50 (human CB1 receptors) turn out when `CC(C)(C)c1nc(N2CCC[C@@H]2C#N)c2ncn(Cc3ncccc3Cl)c2n1` [Example 163, (2R)-1-[2-tert-Butyl-9-[(3-chloropyridin-2-yl)methyl]purin-6-yl]pyrrolidine-2-carbonitrile] was run?
**A.** The EC50 was greater than 10000 nM.

**Q.** And the EC50 (human CB2 receptors)?
**A.** The EC50 was 6.9 nM.

**Q.** For `CC(C)(C)c1nc(N2CC[C@H](O)C2)c2ncn(Cc3nnnn3CC3CC3)c2n1` [Example 164, (3S)-1-[2-tert-butyl-9-[[1-(cyclopropylmethyl)tetrazol-5-yl]methyl]purin-6-yl]pyrrolidin-3-ol], which EC50 (human CB1 receptors) is on record?
**A.** Its EC50 is greater than 10000 nM.

**Q.** And the EC50 (human CB2 receptors)?
**A.** The EC50 was 20.7 nM.

**Q.** Which EC50 (human CB1 receptors) does the source give for `CC(C)(C)c1nc(N2CC(O)(C(F)(F)F)C2)c2ncn(Cc3ncccc3Cl)c2n1` [Example 167, 1-[2-tert-butyl-9-[(3-chloropyridin-2-yl)methyl]purin-6-yl]-3-(trifluoromethyl)azetidin-3-ol] here?
**A.** The EC50 was greater than 10000 nM.

**Q.** What about the EC50 (human CB2 receptors) of the same compound?
**A.** The EC50 was 35 nM.

**Q.** How did the EC50 (human CB1 receptors) turn out when `CC(C)(C)c1nc(N2CCC3(C2)CC3(F)F)c2ncn(Cc3ncccc3Cl)c2n1` (stereo not drawn) [Example 168, 2-tert-butyl-9-[(3-chloropyridin-2-yl)methyl]-6-(2,2-difluoro-5-azaspiro[2.4]heptan-5-yl)purine] was run?
**A.** Its EC50 is greater than 10000 nM.

**Q.** And the EC50 (human CB2 receptors)?
**A.** The EC50 was 32.4 nM.

**Q.** Which results are given for `CC1(O)CN(c2nc(C(C)(C)C)nc3c2ncn3Cc2ncccc2Cl)C1` [Example 169, 1-[2-tert-butyl-9-[(3-chloropyridin-2-yl)methyl]purin-6-yl]-3-methylazetidin-3-ol]?
**A.** EC50 (human CB1 receptors): > 10000 nM; EC50 (human CB2 receptors): 51.4 nM
